# Assay results from PubChem BioAssay (NCI).
# Where “and” joins values, the source holds several entries; their conditions need not be identical. Equal values may be shown once.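 Each compound was tested at five concentrations against cells in 96-well plates for 48 hours. Here, GI50 denotes the concentration required for 50% inhibition of growth. Definition used: TGI = concentration required for complete inhibition of growth.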
# What was measured:
# Assay in all cases: DTP human tumour cell line panel, 48 h
# [1] = test system: OVCAR-5 ovarian
# [2] = test system: K-562 leukemia
# [3] = test system: NCI-H460 lung
# [4] = test system: MOLT-4 leukemia
# [5] = test system: SF-295 CNS
# [6] = test system: PC-3 prostate
# [7] = test system: HL-60(TB) leukemia
# [8] = test system: U251 CNS
# [9] = test system: MDA-MB-435
# [10] = test system: SK-MEL-28 melanoma
SMILES,GI50 [1],TGI [1],GI50 [2],TGI [2],GI50 [3],TGI [3],GI50 [4],TGI [4],GI50 [5],TGI [5],GI50 [6],TGI [6],GI50 [7] [µM],TGI [7] [µM],GI50 [8],TGI [8],GI50 [9],TGI [9],GI50 [10],TGI [10]
NC(=O)Cc1ccccc1Oc1nccc(-c2c(-c3ccc(F)cc3)ncn2C2CCNCC2)n1,> 25 µM,> 25 µM,> 25 µM,> 25 µM,> 25 µM,> 25 µM,> 25 µM,> 25 µM,> 25 µM,> 25 µM,> 25 µM,> 25 µM,> 25,> 25,> 25 µM,> 25 µM,> 25 µM,> 25 µM,> 25 µM,> 25 µM
O=C1OCC2=C1C(c1ccccc1)c1cc3c(cc1N2CCO)CCC3 (configuration not stated),0.203 µM,> 25 µM,0.0908 µM,> 25 µM,0.09 µM,3.51 µM,0.307 µM,> 25 µM,0.0677 µM,–,0.0986 µM,> 25 µM,0.0871,1.94,0.116 µM,> 25 µM,0.0429 µM,0.129 µM,0.168 µM,> 25 µM
CC(C)[C@@H]1NC(=O)[C@]2(C)CSC(=N2)c2csc(n2)CNC(=O)C[C@@H](/C=C/CCS)OC1=O,0.0829 µM,> 100 µM,0.273 µM,> 100 µM,0.0332 µM,> 100 µM,0.171 µM,> 100 µM,0.0358 µM,0.51 µM,0.0577 µM,> 100 µM,0.361,> 100,0.0843 µM,1.02 µM,0.0612 µM,4.17 µM,0.0564 µM,7.01 µM
O=C(/C=C/c1ccccc1O)c1ccccc1,15.3 µM,31.1 µM,2.51 µM,14.1 µM,14.2 µM,29 µM,2.78 µM,14.3 µM,10.9 µM,26.4 µM,7.13 µM,41.6 µM,1.52,11.1,4.18 µM,14.4 µM,6.02 µM,21.1 µM,9.5 µM,22 µM
O=C(Nc1cccnc1)c1cccs1,45.4 µM,> 100 µM,0.728 µM,> 100 µM,6.6 µM,> 100 µM,3.19 µM,> 100 µM,5.04 µM,> 100 µM,> 100 µM,> 100 µM,48.1,> 100,1.86 µM,> 100 µM,2.43 µM,> 100 µM,0.677 µM,> 100 µM
COC(=O)c1c2c(c[n+]([O-])c1C)C(=O)C(NCc1ccccc1)=CC2=O,1.2 µM,2.57 µM,0.529 µM,–,0.425 µM,1.65 µM,0.412 µM,2.59 µM,0.885 µM,2.15 µM,0.274 µM,1.91 µM,0.256,0.667,0.51 µM,1.89 µM,0.193 µM,0.376 µM,1.6 µM,3.29 µM
C[CH2][Sn]1([CH2]C)[O]C2C(O)OC(CO)C(O)C2[O]1 (configuration not stated),20.8 µM,47.3 µM,16.7 µM,41.4 µM,> 100 µM,> 100 µM,12.8 µM,40.5 µM,> 100 µM,> 100 µM,> 100 µM,> 100 µM,16.5,39.1,17.9 µM,36.9 µM,52.6 µM,> 100 µM,23.3 µM,80.4 µM
Clc1ccc(N/N=C/c2ccccn2)nc1,0.433 µM,> 94.3 µM,0.383 µM,> 100 µM,0.379 µM,> 42.7 µM,0.339 µM,> 50.7 µM,0.452 µM,> 100 µM,0.578 µM,> 100 µM,0.318,1.31,0.459 µM,> 100 µM,0.56 µM,> 100 µM,0.598 µM,> 100 µM
Cc1ccccc1NC(=O)N/C(N)=N/c1nc2ccccc2s1,0.488 µM,> 100 µM,0.0327 µM,> 100 µM,0.113 µM,> 100 µM,0.0569 µM,> 100 µM,0.0292 µM,1.17 µM,0.059 µM,> 100 µM,0.0285,0.15,0.0547 µM,> 100 µM,0.0208 µM,0.0553 µM,3.37 µM,> 100 µM
CCCCCCCCCCCCCCCCCC(=O)[O][Sn]([CH2]CCC)([CH2]CCC)[CH2]CCC,0.137 µM,0.34 µM,0.142 µM,> 100 µM,0.109 µM,0.251 µM,0.237 µM,–,0.162 µM,0.435 µM,0.18 µM,0.463 µM,0.179,0.489,0.153 µM,0.319 µM,0.149 µM,0.441 µM,0.159 µM,0.31 µM
C=C1C(=O)O[C@H]2[C@H]1CC/C(COC(=O)NCc1c[nH]c3ccc(OC)cc13)=C\CC[C@@]1(C)O[C@@H]21,2.14 µM,4.9 µM,0.279 µM,11.2 µM,3.76 µM,16.7 µM,1.32 µM,4.74 µM,10.4 µM,22.3 µM,1.07 µM,2.59 µM,0.255,1.88,3.39 µM,14 µM,1.27 µM,2.87 µM,1.52 µM,3.34 µM
O=C(c1ccc(F)c(F)c1Nc1ccc(I)cc1F)N1CC(O)([C@H]2CCCCN2)C1,0.914 µM,15.5 µM,3.53 µM,13.5 µM,4.19 µM,20.2 µM,8.46 µM,23.3 µM,14.5 µM,28.9 µM,9.68 µM,22.3 µM,0.173,5.71,3.5 µM,18.9 µM,0.161 µM,15.8 µM,0.0953 µM,3.45 µM
O=c1oc2c(Br)c(O)c(Br)cc2c2ccccc12,–,> 100 µM,–,50.9 µM,–,57 µM,–,67.1 µM,–,> 100 µM,–,50.4 µM,–,52.3,–,87.8 µM,–,> 100 µM,–,> 100 µM
COC(=O)C1=C(C(=O)Nc2cccnc2)C2OC1(C(Cc1ccccc1)Oc1ccccc1)C1OC21 (configuration not stated),4.1 µM,16.8 µM,2.03 µM,6.68 µM,16.4 µM,34.1 µM,1.75 µM,5.2 µM,14.6 µM,28.6 µM,9.62 µM,21.9 µM,0.569,2.75,10.7 µM,22.6 µM,3.79 µM,13.6 µM,1.83 µM,3.48 µM
N#Cc1cc(-c2ccccc2)[nH]c1-c1nccc2ccccc12,31.7 µM,> 100 µM,6.04 µM,> 100 µM,18.1 µM,> 100 µM,7.15 µM,52.2 µM,7.07 µM,> 100 µM,11.8 µM,> 100 µM,8.52,82.6,25.1 µM,> 100 µM,10.5 µM,78.1 µM,26.5 µM,> 100 µM
CC(/C=C/C=C/C=C/C=C/C=C/C(O)=C1/C(=O)C(CCC(=O)O)N(C)C1=O)=C\C(C)C(OC1CC(O)C(O)C(C)O1)C(C)C (configuration not stated),–,7.83 µM,–,15.6 µM,–,10.1 µM,–,7.08 µM,–,14.8 µM,–,16.6 µM,–,6.07,–,11.7 µM,–,7.93 µM,–,10.1 µM
COc1cc(C2=Nc3c/c(=C\c4c(O)[nH]c5ccc(Cl)cc45)ccc3=N2)cc(OC)c1OC,12 µM,38.8 µM,4.21 µM,25.5 µM,2.7 µM,8.65 µM,2.43 µM,12.9 µM,11.7 µM,29.7 µM,2.94 µM,14.3 µM,3.13,14.6,1.79 µM,3.91 µM,1.73 µM,3.86 µM,3.2 µM,12.7 µM
Oc1ccc(Cl)cc1Cc1cc(Cl)cc(Cc2cc(Cl)ccc2O)c1O,–,12.2 µM,–,10.3 µM,–,4.96 µM,–,8.67 µM,–,7.36 µM,–,7.7 µM,–,8.38,–,11.8 µM,–,9.3 µM,–,14.6 µM
CN(C)c1cc2c(Nc3ccc4nc(Cc5ccccc5)[nH]c4c3)ncnc2cn1,16.6 µM,> 25 µM,> 19.8 µM,> 25 µM,13.1 µM,> 25 µM,> 25 µM,> 25 µM,> 12.7 µM,> 18.9 µM,> 25 µM,> 25 µM,> 25,> 25,> 17.5 µM,> 25 µM,> 20.9 µM,> 25 µM,> 12.4 µM,> 20 µM
Nc1nn(C(=O)Nc2ccc(Cc3ccccc3)cc2)c2ccc(Cl)cc12,22.7 µM,> 100 µM,0.0343 µM,16.9 µM,0.0658 µM,15.3 µM,4.87 µM,47 µM,0.122 µM,19.9 µM,2.87 µM,> 66.5 µM,6.57,44.6,13 µM,29.1 µM,0.138 µM,> 100 µM,7.91 µM,> 100 µM
O=C(O[C@H]1CN[C@H](C#Cc2cc3ncnc(Nc4ccc(Cc5ccccc5)cc4)c3s2)C1)N1CCOCC1,9 µM,> 25 µM,8.44 µM,> 25 µM,7.52 µM,> 25 µM,6.93 µM,> 25 µM,> 13.6 µM,> 25 µM,8.56 µM,> 25 µM,5.5,17.1,5.52 µM,20.3 µM,6.33 µM,> 22.5 µM,4.78 µM,10.9 µM
Clc1cccc(Cn2cc(Cc3cn(Cc4cccc(Cl)c4)c4ccccc34)c3ccccc32)c1,47.1 µM,> 100 µM,> 100 µM,> 100 µM,46.5 µM,> 100 µM,> 100 µM,> 100 µM,86.2 µM,> 100 µM,> 100 µM,> 100 µM,> 100,> 100,> 100 µM,> 100 µM,> 100 µM,> 100 µM,> 100 µM,> 100 µM
CCN1CCN(CCNc2nccc(-c3c(-c4cccc(O)c4)nc4sccn34)n2)S1(=O)=O,21.7 µM and 65 µM,32.5 µM and > 100 µM,11.9 µM and 11.4 µM,32.5 µM and > 100 µM,11.8 µM and 5.86 µM,32.5 µM and 78.3 µM,19.2 µM and 21.7 µM,32.5 µM and 57.6 µM,14.2 µM and 16.4 µM,32.5 µM and 48.8 µM,17.6 µM and 20.1 µM,32.5 µM and > 100 µM,11.8,32.5,30.8 µM and 11.1 µM,32.5 µM and > 100 µM,0.313 µM and 0.376 µM,14.5 µM and 5.79 µM,0.181 µM and 0.13 µM,32.5 µM and > 100 µM
COc1ccc(Nc2nc(NCc3ccccc3)c3ccccc3n2)cc1,10.1 µM,28 µM,2.01 µM,5.71 µM,3.34 µM,12.6 µM,2.12 µM,5.28 µM,4.78 µM,23.4 µM,2.87 µM,12.6 µM,2.04,4.2,2.17 µM,3.97 µM,1.92 µM,3.85 µM,2.03 µM,4.1 µM
C[C@@]12CCC[C@@](C)(C(=O)O)C1CC[C@]13C=C(CO)[C@](O)(CCC12)C3 (some centres not stated),> 100 µM,> 100 µM,> 100 µM,> 100 µM,> 100 µM,> 100 µM,> 100 µM,> 100 µM,> 100 µM,> 100 µM,> 100 µM,> 100 µM,> 100,> 100,> 100 µM,> 100 µM,> 100 µM,> 100 µM,> 100 µM,> 100 µM
